Experimental data taken from US11267825B2 (AICURIS GMBH & CO. KG, priority 2017, dated 2022).

Key:
HBV = experiment: Determination of HBV DNA from the supernatants of HepAD38 cells (anti-HBV activity); assay type: cell-based, hepatitis B virus; settings: Hepatitis B virus, 144 h; HBV DNA in HepAD38 supernatant at day 6; read-out: Cell Activity (EC50)
In short: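 HepAD38 cells (60,000/well) were treated with half-log compound dilutions in tetracycline-free medium to induce HBV production. On day 6, HBV DNA was purified from filtered supernatant and quantified by real-time PCR against plasmid standards. EC50 values came from non-linear regression of relative copy numbers, typically from three experiments in triplicate.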

HBV core protein = HBV core protein (UniProt P03146); assay type: biochemical; settings: read-out: Assembly Activity (IC50); BODIPY-FL labelled core protein, assembly started with NaCl, read after 6 min
In short: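 Fluorescence-quenching assembly assay using E. coli-expressed core protein 1–149 plus Cys150, labelled with BODIPY-FL maleimide, at 1.0–2.0 μM in 50 mM HEPES pH 7.5, 0.5% DMSO. Assembly started with NaCl to […]; fluorescence (ex 477/em 525 nm) read after 6 min. EC50 by non-linear regression, 8-point 0.5-log dilutions.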

Sequence of HBV core protein (P03146 whole entry, looked up): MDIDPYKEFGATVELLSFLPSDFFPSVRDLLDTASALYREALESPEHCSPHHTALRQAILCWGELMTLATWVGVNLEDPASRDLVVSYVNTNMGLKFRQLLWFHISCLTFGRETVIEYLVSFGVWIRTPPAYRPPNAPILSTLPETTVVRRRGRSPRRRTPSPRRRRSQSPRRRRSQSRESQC

Row | Structure (SMILES) | EC50 (HBV) [µM] | IC50 (HBV core protein) [µM]
1 | Nc1nc2c(s1)CN(C(=O)c1cc3c(C(F)F)ccc(F)c3[nH]1)CC2 [Example 341, 5-[4-(difluoromethyl)-7-fluoro-1H-indole-2-carbonyl]-4H,5H,6H,7H-[1,3]thiazolo[5,4-c]pyridin-2-amine] | 1 to 10 | < 5
2 | O=C(c1cc2c(F)cc(F)cc2[nH]1)N1CCc2nc(N[C@H]3CC[C@@H](O)CC3)sc2C1 [Example 344, (1s,4s)-4-{[5-(4,6-difluoro-1H-indole-2-carbonyl)-4H,5H,6H,7H-[1,3]thiazolo[5,4-c]pyridin-2-yl]amino}cyclohexan-1-ol] | < 1 | 5 to 10
3 | O=C(c1cc2c(Cl)c(F)ccc2[nH]1)N1CCc2nc(NCC3(O)CCC3)sc2C1 [Example 362, 1-({[5-(4-chloro-5-fluoro-1H-indole-2-carbonyl)-4H,5H,6H,7H-[1,3]thiazolo[5,4-c]pyridin-2-yl]amino}methyl)cyclobutan-1-ol] | < 1 | < 5
4 | CCc1cc(F)cc2[nH]c(C(=O)N3CCc4nc(NCC5(O)CCC5)sc4C3)cc12 [Example 363, 1-({[5-(4-ethyl-6-fluoro-1H-indole-2-carbonyl)-4H,5H,6H,7H-[1,3]thiazolo[5,4-c]pyridin-2-yl]amino}methyl)cyclobutan-1-ol] | < 1 | < 5
5 | O=C(c1cc2c(Br)cccc2[nH]1)N1CCc2nc(NCC3(O)CCC3)sc2C1 [Example 364, 1-({[5-(4-bromo-1H-indole-2-carbonyl)-4H,5H,6H,7H-[1,3]thiazolo[5,4-c]pyridin-2-yl]amino}methyl)cyclobutan-1-ol] | < 1 | < 5
6 | O=C(c1cc2ccc(Br)cc2[nH]1)N1CCc2nc(NCC3(O)CCC3)sc2C1 [Example 365, 1-({[5-(6-bromo-1H-indole-2-carbonyl)-4H,5H,6H,7H-[1,3]thiazolo[5,4-c]pyridin-2-yl]amino}methyl)cyclobutan-1-ol] | < 1 | < 5
7 | CC(O)c1cc(F)cc2[nH]c(C(=O)N3CCc4nc(NCC5(O)CCC5)sc4C3)cc12 (stereo not drawn) [Example 366, 1-[({5-[6-fluoro-4-(1-hydroxyethyl)-1H-indole-2-carbonyl]-4H,5H,6H,7H-[1,3]thiazolo[5,4-c]pyridin-2-yl}amino)methyl]cyclobutan-1-ol] | < 1 | < 100
8 | O=C(c1cc2c(CO)cccc2[nH]1)N1CCc2nc(NCC3(O)CCC3)sc2C1 [Example 367, 1-[({5-[4-(hydroxymethyl)-1H-indole-2-carbonyl]-4H,5H,6H,7H-[1,3]thiazolo[5,4-c]pyridin-2-yl}amino)methyl]cyclobutan-1-ol] | < 1 | < 100
9 | Cc1cccc2[nH]c(C(=O)N3CCc4nc(NCC5(O)CCC5)sc4C3)cc12 [Example 370, 1-({[5-(4-methyl-1H-indole-2-carbonyl)-4H,5H,6H,7H-[1,3]thiazolo[5,4-c]pyridin-2-yl]amino}methyl)cyclobutan-1-ol] | < 1 | < 5
10 | CC(F)(F)c1cc(F)cc2[nH]c(C(=O)N3CCc4nc(NCC5(O)CCC5)sc4C3)cc12 [Example 371, 1-[({5-[4-(1,1-difluoroethyl)-6-fluoro-1H-indole-2-carbonyl]-4H,5H,6H,7H-[1,3]thiazolo[5,4-c]pyridin-2-yl}amino)methyl]cyclobutan-1-ol] | < 1 | < 5
11 | CC(F)(F)c1cccc2[nH]c(C(=O)N3CCc4nc(NCC5(O)CCC5)sc4C3)cc12 [Example 372, 1-[({5-[4-(1,1-difluoroethyl)-1H-indole-2-carbonyl]-4H,5H,6H,7H-[1,3]thiazolo[5,4-c]pyridin-2-yl}amino)methyl]cyclobutan-1-ol] | 1 to 10 | < 5
12 | O=C(c1cc2c(F)c(F)ccc2[nH]1)N1CCc2nc(NCC3(O)CCC3)sc2C1 [Example 375, 1-({[5-(4,5-difluoro-1H-indole-2-carbonyl)-4H,5H,6H,7H-[1,3]thiazolo[5,4-c]pyridin-2-yl]amino}methyl)cyclobutan-1-ol] | < 1 | < 5
